This is an account of results in patent US20190337971A1, “PANTETHEINE DERIVATIVES FOR THE TREATMENT OF NEUROLOGIC DISORDERS” (Retrophin, Inc., priority 2016, published 2019).

Holding throughout (format): in vitro ADME
Data set [1] in a line: Stability of compounds in human hepatocytes. The following applies: cryopreserved human hepatocytes in suspension, 37° C., 0-240 min. The method, then:
Stability in hepatocytes for select compounds disclosed in the application was evaluated in two species (mouse and human) according to the following procedure. Compounds and positive control samples were dissolved in 100% DMSO at 5 mM. Cryopreserved hepatocytes were thawed and resuspended in Hepatocyte Basal Medium (HBM-Lonza CC-3199) supplemented with CC-4182 (complete hepatocyte culture medium). Test compounds were diluted into cell suspension (1 million cells/ml) from the stock solutions to have a test compound concentration of 5 μM (0.1% DMSO). Incubation was performed in 24-well plates, at 37° C. in a DUBNOFF water bath, under low shaking. Each compound was tested at 6 time points, in duplicates (0, 15, 30, 60, 120, and 240 min). At each time point, an aliquot of 120 μl was taken and transferred to a 96-well deep plate. The reaction was stopped with the addition of one volume of 100% acetonitrile plus 0.1% formic acid and the appropriate internal standard. Samples then were centrifuged at 1100×g for 30 min at +4° C. and supernatants were transferred to a new 96-deepwell plate. Samples were evaporated under N2 and reconstituted in H2O/ACN 0.1% formic Acid (98:2). Analysis was performed without a calibration curve (Acquity UPLC-Waters; Sciex API4000). Time 0 was obtained adding acetonitrile before addition of the test compound. Stability was determined based on analysis of disappearance of the compounds as a function of incubation time. Quantification of test compounds was measured as a peak area relative to an internal standard. The elimination constant, k, is calculated by plotting mean disappearance values on a semi-logarithmic scale and fitting with a best fit linear regression. The half-life (t1/2) expressed in hours was derived using Equation 1:
t1/2=ln 2/(−k). Equation 1: […]

Data set [2] in a line: Permeability in a porcine brain endothelial cell model of the blood-brain barrier. The following applies: pig, luminal (apical) to basal, PBECs/As. The source says: Compounds disclosed herein show the potential to reach mammalian brain by crossing the blood-brain barrier (BBB) from systemic circulation. […] The porcine brain endothelial cell permeability assay is an in vitro BBB model to be used for the prediction of central nervous system (CNS) drug permeability in vivo and for ranking or prioritization of compounds according to their permeability. This system can also be used for mechanistic studies and drug delivery strategies via receptor-mediated transport (transcytosis). The system is a two-dimensional co-culture, non-contact model of two types of primary cells: primary brain endothelial cells obtained from fresh porcine brains, and primary rat astrocytes, obtained from neonatal rats (PBECs/As). This ensures barrier formation and functional expression of key transporters.
The endothelial cells were cultured on rat-tail collagen type I and human fibronectin coated Transwell polycarbonate inserts (surface area 0.7 cm^2; pore size 0.4 μm) and the inserts were placed in 24-well plates containing confluent rat astrocytes. This system allows for the formation of a differentiated BBB model suitable for compound permeability in 10 days.
On the day of the experiment, culture medium was removed and cells were pre-incubated for 30 min with HBSS containing 20 mM Hepes pH 7.4 and 0.1% BSA. Donor volume (apical) was 400 μl and receiver volume (basal) 900 μl. Compounds were diluted in assay medium (at the desired concentration) and added to the luminal side (to mimic blood to brain passage). Transport was measured usually after 60 min by detecting the amount of compound from the basal (brain side). The integrity of the cell layers was assessed by measuring the transendothelial electrical resistance (TEER) and by monitoring FITC-dextran (40 KDa) permeation. Inserts with TEER values>500 Ω/cm^2 were selected for permeability studies. […] Fluorescence was measured using a fluorimetric detector. Radioactivity was measured by scintillation counting. […] After reconstitution, samples were analyzed by LC-MS/MS. Mass balance was determined considering the amount of compound recovered in the donor and receiver chamber at the end of the assay relative to the amount added to the donor chamber at time 0.
Permeability was defined as the apparent permeability coefficient (Papp), which is a measure of the appearance rate of the compound in the receiver chamber, expressed in cm/s. Papp is calculated according the following equation: […]
To correct for the contribution of filter and substrate, Papp was also determined for the cell-free system. Permeability of the endothelial cell layer was determined using the following equation: […]

Data set [3] can be described thus: Stability in human whole blood. The following applies: 37° C., up to 60 min. The method, then: The stability of selected compounds in human whole blood was evaluated according to the following protocol. Compounds and positive control samples were dissolved in 100% DMSO at 3 mM (stock solution). To investigate the stability of the test compounds in whole blood, a 200 μM working solution (WS) in water has been prepared by adding 66.66 μl of each 3 mM stock solution to 933.34 μl of water (6.66% DMSO content). After pre-incubation of the whole blood at 37° C. for 5 min in an eppendorf, 10.5 μl of each working solution were spiked into 689.5 μl of heated blood. The obtained 3 μM solution in blood (0.1% DMSO content) was quickly stirred and 100 μl for each time point were transferred to an eppendorf. Each compound was tested in duplicate at five time points (10, 20, 30, 40 and 60 min). At each time point, the reaction was stopped by quenching the spiked blood (100 μl) with 400 μl of 100% acetonitrile containing 0.1% formic acid. Then samples were centrifuged at 15600 rpm for 15 min at +4° C. and 200 μl of supernatant were transferred to a 96-deepwell plate. Samples were evaporated under N2 and reconstituted in H2O/ACN 0.1% formic Acid (98/2 v/v) containing the appropriate internal standard. Analysis was performed without a calibration curve by using an Acquity-UPLC (Waters) coupled to a triple quadrupole mass spectrometer (SciexAPI4000). Time point 0 was obtained by adding 3 μL of each 200 μM working solution to 997 μL of the supernatant obtaining after centrifugation (15600 rpm for 15 min at +4° C.) of the blank matrix quenched with acetonitrile containing 0.1% formic acid.
Stability was determined based on analysis of disappearance of the compounds as a function of incubation time. Quantification of test compounds was measured as a peak area relative to an internal standard. The elimination constant k and half-life (t1/2) were determined as described above in Example 7.

Where [4] appears, read: Diastereoisomer A (upfield shift in 31P NMR), read-out: t1/2 (h) Human Hepatocytes Diastereoisomer A (converted).
[5] abbreviates: Diastereoisomer B, read-out: t1/2 (h) Human Hepatocytes Diastereoisomer B (converted).
Setting [6] is: pH 7.4, Diastereoisomer A (upfield shift in 31P NMR), read-out: Papp Diastereoisomer A.
[7] abbreviates: pH 7.4, Diastereoisomer B, read-out: Papp Diastereoisomer B.
Setting [8] is: Diastereoisomer A (upfield shift in 31P NMR), read-out: t1/2 (h) Human Whole Blood Diastereoisomer A (converted).
Where [9] appears, read: Diastereoisomer B, read-out: t1/2 (h) Human Whole Blood Diastereoisomer B (converted).

Molecules are shown by their SMILES. Read-outs that look alike come from different tables or passages of the source.

For `CC(=O)SCCNC(=O)CCNC(=O)[C@@H]1OP(=O)(OCOC(=O)c2scnc2C)OCC1(C)C` (stereo partly drawn) [R1006, (((4R)-4-((3-((2-(acetylthio)ethyl)amino)-3-oxopropyl)carbamoyl)-5,5-dimethyl-2-oxido-1,3,2-dioxaphosphinan-2-yl)oxy)methyl 4-methylthiazole-5-carboxylate], the half-life at 5 μM in data set [1] (setting [4]) is 0.42 h; in data set [1] (setting [5]), 0.35 h. Besides, the Papp A→B at 60 min in data set [2] (setting [6]) was 3.17 ×10⁻⁶ cm/s; in data set [2] (setting [7]), 3.18 ×10⁻⁶ cm/s. The half-life at 3 μM in data set [3] (setting [8]) was 0.37 h; in data set [3] (setting [9]) it was less than 0.16 h.

Turning to `CC(=O)SCCNC(=O)CCNC(=O)[C@@H]1OP(=O)(OCOC(=O)c2cc(C)nn2C)OCC1(C)C` (stereo partly drawn) [R1007, (((4R)-4-((3-((2-(acetylthio)ethyl)amino)-3-oxopropyl)carbamoyl)-5,5-dimethyl-2-oxido-1,3,2-dioxaphosphinan-2-yl)oxy)methyl 1,3-dimethyl-1H-pyrazole-5-carboxylate], the half-life at 5 μM in data set [1] (setting [4]) is 0.25 h; in data set [1] (setting [5]) it was 0.21 h. The Papp A→B at 60 min is 3.1 ×10⁻⁶ cm/s in data set [2] (setting [6]) and 3.6 ×10⁻⁶ cm/s in data set [2] (setting [7]). The half-life at 3 μM in data set [3] (setting [8]) was 0.34 h; in data set [3] (setting [9]), less than 0.16 h.
